The test system of assay [1] is panel of 290 distinct kinases (321 in the larger panel), excluding mutant variants. To be noted: kinase selectivity score, class symbols.
The next assay has as its target mutant BRAF kinase (Homo sapiens (Human), UniProt P15056, V600E). Particulars: read-out: BRAF V600E Kd, class symbols.
The target in another assay is wild type BRAF kinase (Homo sapiens (Human), UniProt P15056). To be noted: read-out: BRAF WT Kd, class symbols.
A further assay has as its target RAF kinases (Homo sapiens (Human), UniProt P04049). To be noted: read-out: RAF1 Kd, class symbols.
The mark [2] stands for this setting: value marked * (larger kinase panel).

For orientation: Kd means the constant that tells how readily two partners part at equilibrium.

Where two headings read alike, the source gives them in different places.

wild type BRAF kinase, sequence (P15056 whole entry): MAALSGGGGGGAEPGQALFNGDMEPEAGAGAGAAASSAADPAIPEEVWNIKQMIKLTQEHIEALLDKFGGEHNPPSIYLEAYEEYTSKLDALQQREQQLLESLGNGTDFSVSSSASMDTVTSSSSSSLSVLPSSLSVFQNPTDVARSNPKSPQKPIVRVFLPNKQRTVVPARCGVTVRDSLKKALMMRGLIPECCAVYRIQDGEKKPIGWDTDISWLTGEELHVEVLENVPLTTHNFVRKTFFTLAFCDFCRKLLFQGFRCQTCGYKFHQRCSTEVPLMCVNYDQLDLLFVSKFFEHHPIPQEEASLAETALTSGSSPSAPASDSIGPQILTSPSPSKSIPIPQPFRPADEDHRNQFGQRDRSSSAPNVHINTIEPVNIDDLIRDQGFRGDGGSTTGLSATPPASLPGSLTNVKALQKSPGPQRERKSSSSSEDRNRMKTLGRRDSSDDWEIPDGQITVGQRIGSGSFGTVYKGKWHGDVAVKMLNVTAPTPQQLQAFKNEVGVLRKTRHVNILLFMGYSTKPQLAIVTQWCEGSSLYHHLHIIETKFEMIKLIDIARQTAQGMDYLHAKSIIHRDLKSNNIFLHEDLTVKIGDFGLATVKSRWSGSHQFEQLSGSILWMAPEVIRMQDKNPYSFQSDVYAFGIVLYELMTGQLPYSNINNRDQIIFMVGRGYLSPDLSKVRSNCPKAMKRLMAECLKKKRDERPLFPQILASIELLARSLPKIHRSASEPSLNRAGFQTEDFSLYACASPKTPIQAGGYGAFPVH
RAF kinases, sequence (P04049 whole entry): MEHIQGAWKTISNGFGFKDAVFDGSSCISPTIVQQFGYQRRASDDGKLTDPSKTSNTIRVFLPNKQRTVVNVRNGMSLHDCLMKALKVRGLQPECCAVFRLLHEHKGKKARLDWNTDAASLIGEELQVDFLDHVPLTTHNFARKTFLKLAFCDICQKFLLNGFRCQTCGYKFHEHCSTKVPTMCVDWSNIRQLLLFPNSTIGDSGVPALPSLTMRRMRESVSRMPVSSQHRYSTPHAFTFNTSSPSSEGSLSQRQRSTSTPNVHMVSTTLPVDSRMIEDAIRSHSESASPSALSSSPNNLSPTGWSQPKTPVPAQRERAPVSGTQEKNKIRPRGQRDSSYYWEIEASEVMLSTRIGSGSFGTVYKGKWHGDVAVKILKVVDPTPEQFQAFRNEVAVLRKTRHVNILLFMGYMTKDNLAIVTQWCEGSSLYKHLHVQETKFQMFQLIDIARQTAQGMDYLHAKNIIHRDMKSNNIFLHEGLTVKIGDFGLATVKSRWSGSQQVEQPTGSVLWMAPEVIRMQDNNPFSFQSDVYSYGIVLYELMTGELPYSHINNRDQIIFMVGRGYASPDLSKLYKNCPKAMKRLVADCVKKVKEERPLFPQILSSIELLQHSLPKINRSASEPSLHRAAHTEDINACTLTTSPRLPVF
mutant BRAF kinase, sequence (P15056 whole entry V600E): as the sequence (P15056 whole entry) above, with V600E counted along it

For `COc1cc2ncnc(Oc3cccc(NC(=O)Nc4cc(C(C)(C)C)on4)c3)c2cc1OCCCN1CCOCC1` [Ex 22, 1-(5-tert-butylisoxazol-3-yl)-3-(3-(7-methoxy-6-(3-morpholinopropoxy)quinazolin-4-yloxy)phenyl)urea], in assay [1] (290 distinct kinases), the S35 entry is “D (D > 0.40)”. Besides, the Kd on mutant BRAF kinase, at wild type BRAF kinase and on RAF kinases was < 250 nM in each case.

On to `COc1cc2ncnc(Sc3cccc(NC(=O)Nc4cc(C(C)(C)C)on4)c3)c2cc1OCCCS(C)(=O)=O` [Ex 64, 1-(5-tert-butylisoxazol-3-yl)-3-(3-(7-methoxy-6-(3-(methylsulfonyl)propoxy)quinazolin-4-ylthio)phenyl)urea], for which the S35 result in assay [1] (290 distinct kinases) was “C (0.20 < C ≦ 0.40)”. Further, the Kd at mutant BRAF kinase, at wild type BRAF kinase and at RAF kinases was < 250 nM each time.

As to `COc1cc2ncnc(Sc3cccc(NC(=O)Nc4cc(C(C)(C)C)on4)c3)c2cc1OCCN1CCS(=O)(=O)CC1` [Ex 71, 1-(5-tert-butyl-isoxazol-3-yl)-3-(3-{6-[2-(1,1-dioxo-thiomorpholin-4-yl)-ethoxy]-7-methoxy-quinazolin-4-ylsulfanyl}-phenyl)-urea], the S35 entry in assay [1] (290 distinct kinases) is “C (0.20 < C ≦ 0.40)”. Besides, the Kd on mutant BRAF kinase, at wild type BRAF kinase and at RAF kinases was < 250 nM throughout.

Turning to `COc1cc2ncnc(Sc3cccc(NC(=O)Nc4cc(C(C)(C)C)on4)c3)c2cc1OCCS(C)(=O)=O` [Ex 88, 1-(5-tert-butylisoxazol-3-yl)-3-(3-(7-methoxy-6-(2-(methylsulfonyl)ethoxy)quinazolin-4-ylthio)phenyl)urea], in assay [1] (290 distinct kinases), the S35 entry is recorded as “C (0.20 < C ≦ 0.40)”. Moreover, the Kd at mutant BRAF kinase, on wild type BRAF kinase and at RAF kinases was < 250 nM throughout.

Turning to `COc1cc2nc(Cl)nc(Sc3cccc(NC(=O)Nc4cc(C(C)(C)C)on4)c3)c2cc1OC` [Ex 89, 1-(5-tert-butylisoxazol-3-yl)-3-(3-(2-chloro-6,7-dimethoxyquinazolin-4-ylthio)phenyl)urea], the S35 result in assay [1] (290 distinct kinases) is “A (A ≦ 0.10)”. Also, the Kd at mutant BRAF kinase, at wild type BRAF kinase and on RAF kinases was > 1000 nM each time.

`COc1cc2c(Oc3cccc(NC(=O)Nc4cc(C(C)(C)C)on4)c3)ncnc2cc1OC[C@H](O)CN1CCN(C)CC1` [Ex 100, (R)-1-(5-tert-butylisoxazol-3-yl)-3-(3-(7-(2-hydroxy-3-(4-methylpiperazin-1-yl)propoxy)-6-methoxyquinazolin-4-yloxy)phenyl)urea]: the S35 result in assay [1] (290 distinct kinases) is reported as “D (D > 0.40)”. Moreover, the Kd at mutant BRAF kinase, at wild type BRAF kinase and on RAF kinases was < 250 nM each time.

With `COc1cc2c(Oc3cccc(NC(=O)Nc4cc(C(C)(C)C)on4)c3)ncnc2cc1O[C@H]1CCN(CC(F)(F)F)C1` [Ex 104, (S)-1-(5-tert-butylisoxazol-3-yl)-3-(3-{6-methoxy-7-[1-(2,2,2-trifluoroethyl)pyrrolidin-3-yloxy]quinazolin-4-yloxy}phenyl)urea], the S35 result in assay [1] (setting [2]) is “B* (0.10 < B ≦ 0.20)”. For the same molecule, the Kd on mutant BRAF kinase, at wild type BRAF kinase and at RAF kinases was > 1000 nM in each case.

With `COc1cc2c(Oc3cccc(NC(=O)Nc4cc(C(C)(C)C)on4)c3)ncnc2cc1OC1CCN(CC(F)F)CC1` [Ex 105, 1-(5-tert-butylisoxazol-3-yl)-3-(3-{7-[1-(2,2-difluoroethyl)piperidin-4-yloxy]-6-methoxyquinazolin-4-yloxy}phenyl)urea], the S35 result in assay [1] (setting [2]) is on record as “C* (0.20 < C ≦ 0.40)”. In addition, the Kd at mutant BRAF kinase, on wild type BRAF kinase and on RAF kinases was > 1000 nM throughout.

With `COc1cc2ncnc(Oc3cccc(NC(=O)Nc4cc(C(C)C)no4)c3)c2cc1OC` [Ex 122, 1-(3-(6,7-dimethoxyquinazolin-4-yloxy)phenyl)-3-(3-isopropylisoxazol-5-yl)urea], the S35 result in assay [1] (290 distinct kinases) is recorded as “C (0.20 < C ≦ 0.40)”. Besides, the Kd on mutant BRAF kinase, on wild type BRAF kinase and at RAF kinases was < 250 nM throughout.

Consider `COc1cc2ncnc(Oc3cccc(NC(=O)Nc4cc(C5CC5)no4)c3)c2cc1OC` [Ex 124, 1-(3-cyclopropylisoxazol-5-yl)-3-(3-(6,7-dimethoxyquinazolin-4-yloxy)phenyl)urea], for which the S35 entry in assay [1] (290 distinct kinases) is reported as “C (0.20 < C ≦ 0.40)”. For the same molecule, the Kd at mutant BRAF kinase, at wild type BRAF kinase and on RAF kinases was < 250 nM each time.

For the molecule `COc1cc2ncnc(Oc3cccc(NC(=O)Nc4cc(C5(C)CC5)on4)c3)c2cc1OC` [Ex 127, 1-(3-(6,7-dimethoxyquinazolin-4-yloxy)phenyl)-3-(5-(1-methylcyclopropyl)isoxazol-3-yl)urea], in assay [1] (290 distinct kinases), the S35 result was “C (0.20 < C ≦ 0.40)”. Moreover, the Kd on mutant BRAF kinase, at wild type BRAF kinase and on RAF kinases was < 250 nM each time.

As to `COCC(C)(C)c1cc(NC(=O)Nc2cccc(Oc3ncnc4cc(OC)c(OC)cc34)c2)on1` [Ex 128, 1-(3-(6,7-dimethoxyquinazolin-4-yloxy)phenyl)-3-(3-(1-methoxy-2-methylpropan-2-yl)isoxazol-5-yl)urea], in assay [1] (setting [2]), the S35 entry is reported as “C* (0.20 < C ≦ 0.40)”. For the same molecule, the figures for the Kd on mutant BRAF kinase, on wild type BRAF kinase and at RAF kinases were < 250 nM, > 1000 nM and > 1000 nM, respectively.

For `COc1cc2ncnc(Oc3cccc(NC(=O)Nc4cc(C(C)C)on4)c3)c2cc1OC` [Ex 133, 1-(3-(6,7-dimethoxyquinazolin-4-yloxy)phenyl)-3-(5-isopropylisoxazol-3-yl)urea], the S35 entry in assay [1] (setting [2]) was “C* (0.20 < C ≦ 0.40)”. The Kd at mutant BRAF kinase, at wild type BRAF kinase and at RAF kinases was < 250 nM in each case.

Regarding `COc1cc2ncnc(Sc3cccc(NC(=O)Nc4cc(C(C)C)on4)c3)c2cc1OC` [Ex 134, 1-(3-(6,7-dimethoxyquinazolin-4-ylthio)phenyl)-3-(5-isopropylisoxazol-3-yl)urea], the S35 result in assay [1] (setting [2]) is on record as “C* (0.20 < C ≦ 0.40)”. Moreover, the Kd at mutant BRAF kinase, at wild type BRAF kinase and at RAF kinases was < 250 nM throughout.

For `COc1cc2ncnc(Oc3cccc(NC(=O)Nc4cc(C5CCCC5)on4)c3)c2cc1OC` [Ex 135, 1-(5-cyclopentylisoxazol-3-yl)-3-(3-(6,7-dimethoxyquinazolin-4-yloxy)phenyl)urea], the S35 entry in assay [1] (setting [2]) was “C* (0.20 < C ≦ 0.40)”. The Kd on mutant BRAF kinase, at wild type BRAF kinase and at RAF kinases was < 250 nM throughout.

With `COc1cc2ncnc(Oc3cccc(NC(=O)Nc4cc(C(C)(C)F)on4)c3)c2cc1OC` [Ex 136, 1-(3-(6,7-dimethoxyquinazolin-4-yloxy)phenyl)-3-(5-(2-fluoropropan-2-yl)isoxazol-3-yl)urea], the S35 result in assay [1] (setting [2]) is “C* (0.20 < C ≦ 0.40)”. Moreover, the Kd at mutant BRAF kinase, at wild type BRAF kinase and on RAF kinases was < 250 nM each time.

Consider `COCCOc1cc2ncnc(Oc3cccc(NC(=O)Nc4ccc(OC)c(C(F)(F)F)c4)c3)c2cc1OC` [Ex 139, 1-(4-methoxy-3-(trifluoromethyl)phenyl)-3-(3-(6-methoxy-7-(2-methoxyethoxy)quinazolin-4-yloxy)phenyl)urea], for which, in assay [1] (setting [2]), the S35 entry is “C* (0.20 < C ≦ 0.40)”. For the same molecule, the Kd on mutant BRAF kinase, at wild type BRAF kinase and at RAF kinases was < 250 nM in each case.

Take `COc1cc2ncnc(Oc3cccc(NC(=O)Nc4cc(C(F)(F)F)ccn4)c3)c2cc1OC` [Ex 141, 1-(3-(6,7-dimethoxyquinazolin-4-yloxy)phenyl)-3-(4-(trifluoromethyl)pyridin-2-yl)urea]: the S35 entry in assay [1] (290 distinct kinases) is “C (0.20 < C ≦ 0.40)”. The Kd on mutant BRAF kinase, at wild type BRAF kinase and at RAF kinases was < 250 nM in each case.

As for `COc1cc2ncnc(Sc3cccc(NC(=O)Nc4cc(C(C)(C)C)nn4-c4ccccc4)c3)c2cc1OC` [Ex 154, 1-(3-tert-butyl-1-phenyl-1H-pyrazol-5-yl)-3-(3-(6,7-dimethoxyquinazolin-4-ylthio)phenyl)urea], the S35 result in assay [1] (setting [2]) is “D* (D > 0.40)”. Also, the Kd at mutant BRAF kinase, at wild type BRAF kinase and on RAF kinases was > 1000 nM each time.

For the molecule `COc1cc2ncnc(Oc3cccc(NC(=O)Nc4cc(C(F)(F)F)nn4C)c3)c2cc1OC` [Ex 164, 1-[3-(6,7-dimethoxyquinazolin-4-yloxy)phenyl]-3-[1-methyl-3-(trifluoromethyl)-1H-pyrazol-5-yl]urea], the S35 entry in assay [1] (setting [2]) is reported as “C* (0.20 < C ≦ 0.40)”. The Kd at mutant BRAF kinase, at wild type BRAF kinase and at RAF kinases was < 250 nM throughout.

As for `COc1cc2ncnc(Oc3cccc(NC(=O)Nc4cc(C(F)(F)F)n(C)n4)c3)c2cc1OC` [Ex 165, 1-[3-(6,7-dimethoxyquinazolin-4-yloxy)phenyl]-3-[1-methyl-5-(trifluoromethyl)-1H-pyrazol-3-yl]urea], the S35 entry in assay [1] (setting [2]) is “C* (0.20 < C ≦ 0.40)”. Also, the Kd on mutant BRAF kinase, on wild type BRAF kinase and at RAF kinases was < 250 nM throughout.

As to `COc1cc2ncnc(Oc3cccc(NC(=O)Nc4cc(C(C)(CF)CF)nn4-c4ccccc4)c3)c2cc1OC` [Ex 167, 1-[3-(1,3-difluoro-2-methylpropan-2-yl)-1-phenyl-1H-pyrazol-5-yl]-3-[3-(6,7-dimethoxyquinazolin-4-yloxy)phenyl]urea], the S35 result in assay [1] (setting [2]) is listed as “D* (D > 0.40)”. Besides, the Kd on mutant BRAF kinase, on wild type BRAF kinase and on RAF kinases was > 1000 nM each time.

Regarding `COc1cc2ncnc(Oc3cccc(NC(=O)Nc4ccccc4)c3)c2cc1OC` [Ex 182, 1-(3-(6,7-dimethoxyquinazolin-4-yloxy)phenyl)-3-phenylurea], the Kd at mutant BRAF kinase, on wild type BRAF kinase and at RAF kinases was > 1000 nM each time.

The record behind these values is patent publication US9730937B2, “RAF kinase modulator compounds and methods of use thereof” (AMBIT BIOSCIENCES CORPORATION, priority 2008, dated 2017).
